We go through three compounds from PMC3724763 (Journal of medicinal chemistry, 2013).

The target in the assay is T1, JHDM1A (Homo sapiens, UniProt Q9Y2K7).
T1 sequence (Q9Y2K7 1-517): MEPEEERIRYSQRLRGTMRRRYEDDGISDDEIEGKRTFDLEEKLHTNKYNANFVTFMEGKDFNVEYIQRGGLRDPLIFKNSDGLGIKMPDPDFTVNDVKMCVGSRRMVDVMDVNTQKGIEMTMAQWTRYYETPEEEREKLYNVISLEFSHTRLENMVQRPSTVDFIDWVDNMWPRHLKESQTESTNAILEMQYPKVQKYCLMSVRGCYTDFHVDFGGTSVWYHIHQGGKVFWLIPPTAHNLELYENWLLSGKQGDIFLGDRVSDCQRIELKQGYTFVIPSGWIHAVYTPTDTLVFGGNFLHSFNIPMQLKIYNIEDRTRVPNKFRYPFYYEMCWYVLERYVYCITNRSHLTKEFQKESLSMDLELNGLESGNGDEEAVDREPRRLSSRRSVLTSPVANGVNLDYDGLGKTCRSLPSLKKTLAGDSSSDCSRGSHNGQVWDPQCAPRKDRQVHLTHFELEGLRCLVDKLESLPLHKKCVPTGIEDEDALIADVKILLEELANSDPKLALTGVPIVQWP
Nature of the assay: FP competitive binding assay with tracer 3 and JHDM1A. The settings on record: 60 nM JHDM1A, 1 nM 3, Ni2+ buffer, 4 h.
In the case of `O=C(O)CCC(=O)C(=O)O` [αKG, α-ketoglutarate], the “displacement of tracer 3 from JHDM1A” value is recorded as “can displace 3 from JHDM1A”. Turning to `O=C(O)CNC(=O)C(=O)O` [NOG, N-oxalyl glycine], the “displacement of tracer 3 from JHDM1A” value was “can displace 3 from JHDM1A”. For `O=C(O)/C=C/C(=O)N(O)CCCCNCc1ccc(COC(=O)Nc2cccc3ccccc23)cc1` [Compound 2, methylstat acid], the “displacement of tracer 3 from JHDM1A” value is recorded as “can displace 3 from JHDM1A”.
